The values below come from BindingDB's records for doi:10.1016/s0960-894x(00)00660-0 (Clinical Research Institute of Montreal, 2001).

Assay [1] can be described thus: Tested for binding affinity towards Opioid receptor mu 1 in rat and guinea pig brain membrane binding assays.
Assay [2] can be described thus: Tested for binding affinity towards Opioid receptor delta 1 in rat and guinea pig brain membrane binding assays.

Peptide text beside a SMILES is read from it. * marks the point of attachment. X1 = Cc1cc(O)cc(C)c1C[C@H](C)C(=O)*

In general, Ki refers to a measure of affinity in units of concentration, obtained from inhibition or displacement. For the compound `Cc1cc(O)cc(C)c1C[C@H](C)C(=O)N[C@@H](C)C(=O)NCC(=O)N[C@@H](Cc1ccccc1)C(=O)N[C@@H](CC(C)C)C(N)=O` [(S)-2-[(S)-2-(2-{(S)-2-[(S)-3-(4-Hydroxy-2,6-dimethyl-phenyl)-2-methyl-propionylamino]-propionylamino}-acetylamino)-3-phenyl-propionylamino]-4-methyl-pentanoic acid amide] (X1-AGFL-NH2), the Ki in assay [1] worked out at 192 nM; in assay [2], 12 nM.
